Assay [1] deals with LoVo colorectal adenocarcinoma xenografts. The assay can be described thus: In vivo anticancer activity, oxaliplatin-sensitive colorectal xenograft. Also on record: species or system BALB/c nu/nu mice. The note with it: LoVo xenograft; daily ip day 14 to day 30; 1 at 3 mg/kg, OXP at 2 mg/kg; tumor volume at day 30. The procedure:
(§1) LoVo and LoVo-OXP tumor xenografts were established in 6-week-old BALB/c nu/nu mice by injecting 1×10^7 tumor cells subcutaneously (100 μL in serum free medium) on the left dorsal flank. After 24 h from tumor implantation, mice were randomly divided into five groups (6 animals per group, 8 controls). Chemotherapy was delayed until the tumor became palpable (day 14). From day 14, 1 was dosed daily at 3 mg/kg ip whereas OXP was dosed daily at 2 mg/kg ip. Measurements of body weights and tumor volumes were recorded every 2 days until the experimental endpoint. The long axis (L) and the short axis (S) were measured with caliper, and the tumor volume (V) was calculated using the following equation: V=S×S×L/2. At day 30, animals were sacrificed, and the inhibition of tumor growth was determined by comparing the volume of the control group and the treatment group expressed as % referred to the control animals.
(§2) All the values are the means±S.D. of not less than three measurements. Multiple comparisons were made by Tukey-Kramer test (**p<0.01; *p<0.05).

The test system of assay [2] is LoVo-OXP oxaliplatin resistant colon cancer cells. The assay can be described thus: MTT cytotoxicity assay, cross-resistance profile. It is filed as cell-based, human. Particulars: for R.F. (resistance factor): IC50 LoVo-OXP / IC50 LoVo, cross-resistance with oxaliplatin. For orientation: Tetrazolium dyes change colour on reduction, which living cells bring about.
Assay [3] deals with 2008 ovarian cancer cells. The assay can be described thus: MTT cytotoxicity assay, cross-resistance profile. It is filed as cell-based, human. The note with it: 72 h.
For assay [4], the system named is C13* cisplatin resistant ovarian cancer cells. Kind of assay: MTT cytotoxicity assay, cross-resistance profile. It is filed as cell-based, human. Particulars: for R.F. (resistance factor): IC50 C13* / IC50 2008, cross-resistance with cisplatin.
For assay [5], the system named is LoVo-OXP colorectal adenocarcinoma xenografts. The assay can be described thus: In vivo anticancer activity, oxaliplatin-resistant colorectal xenograft. Also on record: species or system BALB/c nu/nu mice. The protocol: as §1, §2
The next assay concerns SW480. The assay can be described thus: MTT cytotoxicity assay, 72 h. It is filed as cell-based, human. Particulars: SW480, colon.
The test system of the next assay is HCT-15. Kind of assay: MTT cytotoxicity assay, 72 h. It is filed as cell-based, human. The note with it: HCT-15, colon.
The next assay relates to A375. Kind of assay: MTT cytotoxicity assay, 72 h. It is filed as cell-based, human. Particulars: A375, skin.
Another assay concerns MCF-7. Kind of assay: MTT cytotoxicity assay, 72 h. It is filed as cell-based, human. The note with it: MCF-7, breast.
In the next assay the test system is DLD-1. The assay can be described thus: MTT cytotoxicity assay, 72 h. It is filed as cell-based, human. The note with it: DLD-1, colon.
Another assay deals with A431. Kind of assay: MTT cytotoxicity assay, 72 h. The note with it: A431, cervix. It is filed as cell-based, human.

In general, IC50 refers to the concentration at which inhibition is half-maximal. The low end stands for inhibition by little substance, the high end for a need for much substance. `O=C1[O][Pt-2]2([NH2+]C3CCCC[C@H]3[NH2+]2)[O]C1=O` (stereo partly drawn) [oxaliplatin, [(1R,2R)-cyclohexane-1,2diamine](ethanedioato)platinum(II), reference compound]: the tumor growth inhibition is given as 54% in [1] and 24% in assay [5] (LoVo-OXP xenograft, daily ip day 14 to day 30, 1 at 3 mg/kg, OXP at 2 mg/kg, tumor volume at day 30). The “R.F. (resistance factor)” value in assay [2] was 17; in assay [2] (listed as OXP), 17; in assay [4], 2.0; in assay [4] (listed as OXP) it was 2. Also, the IC50 in assay [2] (LoVo-OXP, 72 h, MTT) worked out at 17.5 ± 1.79 µM; in assay [3], 1.65 ± 1.01 µM; in assay [4] (C13*, 72 h, MTT), 3.33 ± 1.84 µM; in the assay on SW480, 4.2 ± 0.75 µM; with HCT-15, 1.25 ± 1.05 µM; in the assay on A375 it was 2.37 ± 1.31 µM. Also, the results for the half-maximal inhibitory concentration (IC50) with MCF-7, in the assay on DLD-1 and in the assay with A431 were 3.36 ± 1.69 µM, 5.81 ± 1.93 µM and 3.69 ± 1.03 µM, respectively. Further, in [5] (LoVo-OXP models), the “antitumor activity, times lower than that exerted by 1” value was 2.4.
